Data reported in patent US20260347364A1, “PYRAZOLO[4,3-F]QUINAZOLINE DERIVATIVES AS MODULATORS OF G12D MUTANT KRAS USEFUL FOR THE TREATMENT OF CANCER” (JAZZ PHARMACEUTICALS IRELAND LTD., priority 2023, published 2026).

Legend:
KRAS WT = target: T1, KRAS WT (Homo sapiens, UniProt P01116); assay: HTRF nucleotide exchange assay, KRAS WT; type: biochemical; details: class symbols; for IC50: HTRF nucleotide exchange assay (NEA)
T1 construct: aa1-188 KRAS WT
Method: (§1) HTRF Nucleotide Exchange Assay Method
(§2) The capacity of compounds to bind KRAS G12D, other KRAS mutants and wildtype RAS isoforms was quantified using a HTRF nucleotide exchange assay. Recombinant human RAS protein (2 nM; aa1-188 KRAS WT, HRAS WT, NRAS WT, or KRAS containing the G12D, G13D or Q61H amino acid substitutions, or 4 nM KRAS; aa1-188 containing the G12V, G12C, G12A or G12S amino acid substitution, an N-terminal 6× His-tag and leader sequence), and 2 nM Europium-labeled anti-6× His antibody were mixed in assay buffer (10 mM HEPES pH 7.3, 150 mM NaCl, 5 mM MgCl2, 0.05% BSA, 0.0025% NP-40 and 100 mM KF) with various concentrations of compound in a 384-well plate and a volume of 5 μL. After a 60-minute incubation at room temperature, 5 μl of 200 nM EDA-GTP-DY647P1 (diluted in assay buffer) was added to the plate. Following 30-minute incubation at room temperature, time-resolved fluorescence was measured on a PerkinElmer Envision plate reader. DMSO (0.3%) and unlabeled GDP (1 μM) or equivalent tool compound were used to generate the Max and Min assay signals, respectively. Data was analysed using a four-parameter logistic model to calculate IC50 values, with at least two independent replicates were performed for each compound. The results are presented as IC50s in Table 29 where “A” corresponds to an IC50 ≤10 nM, “B” to an IC50 >10 nM up to 100 nM, “C” is >100 nM up to 10 μM, “D” represents <49% inhibition at 10 μM and ND=not determined: […]

KRAS G12D = target: T2, KRAS G12D (Homo sapiens, UniProt P01116, G12D); assay: HTRF nucleotide exchange assay, KRAS G12D; type: biochemical; details: class symbols; for IC50: HTRF nucleotide exchange assay (NEA)
T2 construct: aa1-188 KRAS WT, HRAS WT, NRAS WT, or KRAS containing the G12D
Method: as §1, §2

IC50 (KRAS WT) | IC50 (KRAS G12D) | KRAS^WT NEA (KRAS WT) | KRAS^G12D NEA (KRAS G12D) | SMILES
100 to 10000 nM | 100 to 10000 nM | – | – | CCc1c(F)ccc2cc(O)cc(-c3cc4nc(OCC5CCCN(C)C5)nc(N5CCCOCC5)c4c4cn(C)nc34)c12 (stereo not drawn) [Example 32, 5-ethyl-6-fluoro-4-[2-methyl-7-[(1-methyl-3-piperidyl)methoxy]-9-(1,4-oxazepan-4-yl)pyrazolo[4,3-f]quinazolin-4-yl]naphthalen-2-ol]
10 to 100 nM | 10 to 100 nM | – | – | C#Cc1c(F)ccc2cc(O)cc(-c3cc4nc(OC[C@@]56CCCN5C[C@H](F)C6)nc(N5CCCC(C)(O)C5)c4c4cn(C)nc34)c12 (stereo partly drawn) [Example 33, 1-[4-(8-ethynyl-7-fluoro-3-hydroxy-1-naphthyl)-2-methyl-7-[[(2R,8S)-2-fluoro-1,2,3,5,6,7-hexahydropyrrolizin-8-yl]methoxy]pyrazolo[4,3-f]quinazolin-9-yl]-3-methyl-piperidin-3-ol]
100 to 10000 nM | ≤ 10 nM | – | – | C#Cc1c(F)ccc2cc(O)cc(-c3cc4nc(OC[C@@]56CCCN5C[C@H](F)C6)nc(N5CC6CNCC6C5)c4c4cn(C)nc34)c12 (stereo partly drawn) [Example 34, 4-[9-(2,3,3a,4,6,6a-hexahydro-1H-pyrrolo[3,4-c]pyrrol-5-yl)-2-methyl-7-[[(2R,8S)-2-fluoro-1,2,3,5,6,7-hexahydropyrrolizin-8-yl]methoxy]pyrazolo[4,3-f]quinazolin-4-yl]-5-ethynyl-6-fluoro-naphthalen-2-ol]
– | 100 to 10000 nM | D (<49% inhibition at 10 μM) | – | C#Cc1c(F)ccc2cc(O)cc(-c3cc4nc(OC[C@@]56CCCN5C[C@H](F)C6)nc(N5CC6C(=O)NC(=O)C6C5)c4c4cn(C)nc34)c12 (stereo partly drawn) [Example 37]
100 to 10000 nM | 100 to 10000 nM | – | – | Cn1cc2c(n1)c(-c1cc(O)ccc1OC(F)(F)F)cc1nc(OC[C@@]34CCCN3C[C@H](F)C4)nc(N3CCCOCC3)c12 [Example 38, 3-[2-methyl-9-(1,4-oxazepan-4-yl)-7-[[(2R,8S)-2-fluoro-1,2,3,5,6,7-hexahydropyrrolizin-8-yl]methoxy]pyrazolo[4,3-f]quinazolin-4-yl]-4-(trifluoromethoxy)phenol]
10 to 100 nM | 10 to 100 nM | – | – | Cn1cc2c(n1)c(-c1cc(O)cc3ccc(F)c(F)c13)cc1nc(OC[C@@]34CCCN3C[C@H](F)C4)nc(N3CCCOCC3)c12 [Example 39]
≤ 10 nM | ≤ 10 nM | – | – | CCc1c(F)ccc2cc(O)cc(-c3cc4nc(OC[C@@]56CCCN5C[C@H](F)C6)nc(N5CCOC[C@@](C)(O)C5)c4c4cn(C)nc34)c12 [Example 40, (6S)-4-[4-(8-ethyl-7-fluoro-3-hydroxy-1-naphthyl)-2-methyl-7-[[(2R,8S)-2-fluoro-1,2,3,5,6,7-hexahydropyrrolizin-8-yl]methoxy]pyrazolo[4,3-f]quinazolin-9-yl]-6-methyl-1,4-oxazepan-6-ol]
10 to 100 nM | 10 to 100 nM | – | – | CCc1c(F)ccc2cc(O)cc(-c3cc4nc(OC[C@@]56CCCN5C[C@H](F)C6)nc(N5CCOC[C@](C)(O)C5)c4c4cn(C)nc34)c12 [Example 41, (6R)-4-[4-(8-ethyl-7-fluoro-3-hydroxy-1-naphthyl)-2-methyl-7-[[(2R,8S)-2-fluoro-1,2,3,5,6,7-hexahydropyrrolizin-8-yl]methoxy]pyrazolo[4,3-f]quinazolin-9-yl]-6-methyl-1,4-oxazepan-6-ol]
10 to 100 nM | 10 to 100 nM | – | – | CCc1c(F)ccc2cc(O)cc(-c3cc4nc(OC[C@@]56CCCN5C[C@H](F)C6)nc(N5CCCC(O)CC5)c4c4cn(C)nc34)c12 (stereo partly drawn) [Example 42, 1-[4-(8-ethyl-7-fluoro-3-hydroxy-1-naphthyl)-2-methyl-7-[[(2R,8S)-2-fluoro-1,2,3,5,6,7-hexahydropyrrolizin-8-yl]methoxy]pyrazolo[4,3-f]quinazolin-9-yl]azepan-4-ol]
≤ 10 nM | ≤ 10 nM | – | – | C#Cc1c(F)ccc2cc(O)cc(-c3cc4nc(OC[C@@]56CCCN5C[C@H](F)C6)nc(N5CCCCC(C)(O)C5)c4c4cn(C)nc34)c12 (stereo partly drawn) [Example 43]
10 to 100 nM | 10 to 100 nM | – | – | CCc1c(F)ccc2cc(O)cc(-c3cc4nc(OC[C@@]56CCCN5C[C@H](F)C6)nc(N5CCCOCC5)c4c4cn(C5CC5)nc34)c12 [Example 44, 4-[2-cyclopropyl-9-(1,4-oxazepan-4-yl)-7-[[(2R,8S)-2-fluoro-1,2,3,5,6,7-hexahydropyrrolizin-8-yl]methoxy]pyrazolo[4,3-f]quinazolin-4-yl]-5-ethyl-6-fluoro-naphthalen-2-ol]
100 to 10000 nM | 100 to 10000 nM | – | – | CCc1c(F)ccc2cc(O)cc(-c3c(F)c4nc(OC[C@@]56CCCN5C[C@H](F)C6)cc(N5CCCOCC5)c4c4cn(C)nc34)c12 [Example 45, 5-ethyl-6-fluoro-4-[5-fluoro-2-methyl-9-(1,4-oxazepan-4-yl)-7-[[(2R,8S)-2-fluoro-1,2,3,5,6,7-hexahydropyrrolizin-8-yl]methoxy]pyrazolo[4,3-f]quinolin-4-yl]naphthalen-2-ol]
100 to 10000 nM | – | – | D (<49% inhibition at 10 μM) | CCc1c(F)ccc2cc(O)cc(-c3cc4nc(OC[C@@]56CCCN5C[C@H](F)C6)nc(N5CCCOCC5)c4c4cnn(C)c34)c12 [Example 46, 5-ethyl-6-fluoro-4-[3-methyl-9-(1,4-oxazepan-4-yl)-7-[[(2R,8S)-2-fluoro-1,2,3,5,6,7-hexahydropyrrolizin-8-yl]methoxy]pyrazolo[4,3-f]quinazolin-4-yl]naphthalen-2-ol]
100 to 10000 nM | 100 to 10000 nM | – | – | CCc1c(F)ccc2cc(O)cc(-c3cc4nc(OCC56CCCN5CCC6)nc(N5CCCOCC5)c4c4[nH]ncc34)c12 [Example 47, 5-ethyl-6-fluoro-4-[7-(1,2,3,5,6,7-hexahydropyrrolizin-8-ylmethoxy)-9-(1,4-oxazepan-4-yl)-1H-pyrazolo[3,4-f]quinazolin-4-yl]naphthalen-2-ol]
– | – | D (<49% inhibition at 10 μM) | D (<49% inhibition at 10 μM) | Cn1ncc2c3c(N4CCCOCC4)nc(OC[C@@]45CCCN4C[C@H](F)C5)nc3cc(-c3cc(O)cc4ccccc34)c21 [Example 48, 4-[3-methyl-9-(1,4-oxazepan-4-yl)-7-[[(2R,8S)-2-fluoro-1,2,3,5,6,7-hexahydropyrrolizin-8-yl]methoxy]pyrazolo[4,3-f]quinazolin-4-yl]naphthalen-2-ol]
100 to 10000 nM | – | – | D (<49% inhibition at 10 μM) | CCc1c(F)ccc2cc(O)cc(-c3cc4nc(OC[C@@H]5C[C@H](C)CN5)nc(N5CCCn6nc(C(=O)N(C)C)cc6C5)c4c4cn(C)nc34)c12 [Example 49, 5-[4-(8-ethyl-7-fluoro-3-hydroxy-1-naphthyl)-2-methyl-7-[[(2S,4S)-4-methylpyrrolidin-2-yl]methoxy]pyrazolo[4,3-f]quinazolin-9-yl]-N,N-dimethyl-4,6,7,8-tetrahydropyrazolo[1,5-a][1,4]diazepine-2-carboxamide]
10 to 100 nM | ≤ 10 nM | – | – | CCc1c(F)ccc2cc(O)cc(-c3cc4nc(OC[C@@H]5CCN5)nc(N5CCCn6nc(C(=O)N(C)C)cc6C5)c4c4cn(C)nc34)c12 [Example 50, 5-[4-(8-ethyl-7-fluoro-3-hydroxy-1-naphthyl)-2-methyl-7-[[(2S)-azetidin-2-yl]methoxy]pyrazolo[4,3-f]quinazolin-9-yl]-N,N-dimethyl-4,6,7,8-tetrahydropyrazolo[1,5-a][1,4]diazepine-2-carboxamide]
10 to 100 nM | ≤ 10 nM | – | – | CCc1c(F)ccc2cc(O)cc(-c3cc4nc(OC[C@@H]5C[C@@H](OC)CN5)nc(N5CCCn6nc(C(=O)N(C)C)cc6C5)c4c4cn(C)nc34)c12 [Example 51]
10 to 100 nM | ≤ 10 nM | – | – | CCc1c(F)ccc2cc(O)cc(-c3cc4nc(OCC5(CN6CCCC6)CC5)nc(N5CCCn6nc(C(=O)N(C)C)cc6C5)c4c4cn(C)nc34)c12 [Example 52]
– | 100 to 10000 nM | D (<49% inhibition at 10 μM) | – | CCc1c(F)ccc2cc(O)cc(-c3cc4nc(OC[C@]5(C)CCCN5)nc(N5CCCn6nc(C(=O)N(C)C)cc6C5)c4c4cn(C)nc34)c12 [Example 53, 5-[4-(8-ethyl-7-fluoro-3-hydroxy-1-naphthyl)-2-methyl-7-[[(2S)-2-methylpyrrolidin-2-yl]methoxy]pyrazolo[4,3-f]quinazolin-9-yl]-N,N-dimethyl-4,6,7,8-tetrahydropyrazolo[1,5-a][1,4]diazepine-2-carboxamide]
– | – | D (<49% inhibition at 10 μM) | D (<49% inhibition at 10 μM) | Cn1cc2c(n1)c(-c1cc(O)cc3c1C(=O)CCC3)cc1nc(OC[C@@]34CCCN3C[C@H](F)C4)nc(N3CCCOCC3)c12 [Example 58, 6-hydroxy-8-[2-methyl-9-(1,4-oxazepan-4-yl)-7-[[(2R,8S)-2-fluoro-1,2,3,5,6,7-hexahydropyrrolizin-8-yl]methoxy]pyrazolo[4,3-f]quinazolin-4-yl]tetralin-1-one]
